Where two headings read alike, the source gives them in different places.
Assays:
[1] = test system: collagenase (MMP-1) mRNA; test: IL-1 induced collagenase mRNA expression in chondrocytes (Northern blot); assay type: cell-based, calf
Procedure: Total RNA was isolated, and the MMP-1 mRNA levels were determined by Northern blot analysis. The blots were subsequently stripped and reprobed with ^32P-radiolabeled rat GAPDH cDNA, which was used as a housekeeping gene. The results shown are representative of four independent experiments. Quantitation of collagenase-1 and stromelysin-expression mRNA levels. The MMP-1 and MMP-3 expression levels were normalized with GAPDH.
Primary chondrocyte cultures were freshly isolated from calf cartilage. The cells were plated at 2.5×10^6 per ml in 100×20 mm culture dishes and incubated in Ham's F12 medium containing 5% FBS overnight at 37° C. […] IL-1 (20 ng/ml) was then added to each plate and the plates incubated for an additional 18 hours. Total RNA was isolated by the acidified guanidine isothiocyanate method and subjected to electrophoresis on a denatured gel. Denatured RNA samples (15 μg) were analyzed by gel electrophoresis in a 1% denatured gel, transferred to a nylon membrane and hydridized with the ^32P-labeled collagenase cDNA probe. ^32P-labeled glyceraldehyde phosphate […] (GAPDH) cDNA as an internal standard to ensure roughly equal loading. The exposed films were scanned and quantitatively analyzed with ImageQuant.

[2] = test system: MS symptoms; test: Demyelinating DM20 (ND4) transgenic mouse model of MS; assay type: in vivo; design: key to Seizures / Shaking / Hind Limb Paralysis / Head Tremors: 1+: slight but definite signs; 2+: increase in severity; 3+: signs worsened with limited movement; 4+: very severe signs with loss of motor control (moribund); details: micellar paclitaxel 2.5 mg/kg s.c. 3 times per week, 7 injections
Source text: These transgenic mice contain 70 copies of the transgene DM20, a myelin proteolipid. Clinically, the animals appear normal up to 3 months of age. After 3 months, evidence of neurological pathology, such as seizures, shaking, hind limb mobility, unsteadiness of gait, limp tail, wobbly gait and reduction in the degree of activity, appear and progressively increase in severity until the animals die between 6 and 8 months of age.
For both of these sets of experiments, dosing was initiated at the clinical onset of disease (approximately 3 to 4 months of age).
Animals were injected with the first dose once the initial signs of MS had reached a score of 1+ for the symptom categories described. The clinical scores and body weight were determined on each injection day and continued three times a week until the end of the study period (6 months of age). Scoring was based on a 1+ to 4+ system, whereby 1+=slight but definite signs, 2+=increase in severity, 3+=signs worsened with limited movement and 4+=very severe signs with loss of motor control (moribund).
Three additional transgenic mice were used as controls and received an equivalent dose of PBS. […] Furthermore, four normal mice were used as controls and administered equivalent volumes of PBS.

[3] = test system: EOMA cells; test: Endothelial cell proliferation (trypan blue exclusion); assay type: cell-based; details: 48 hours
Procedure: Following the incubation, the number of viable cells were determined using the trypan blue exclusion assay. […] All cell toxicity assays were performed three times, and each individual measurement was made in triplicate.

[4] = test system: neutrophils; test: Neutrophil chemiluminescence assay (opsonized CPPD crystals or zymosan); assay type: cell-based, human; details: Homo sapiens, Neutrophil, 28 μM, read-out: inhibition of the peak chemiluminescence response
Procedure: All experiments that studied neutrophil responses to crystals or zymosan in the presence of paclitaxel were performed using plasma opsonized CPPD or zymosan. Opsonization of crystals or zymosan was done with 50% heparinized plasma at a concentration of 75 mg of CPPD or 12 mg of zymosan per ml of 50% plasma Crystals or zymosan were incubated with plasma for 30 minutes at 37° C. and then washed in excess HBSS.
Neutrophil viability and purity was always greater than 90%.
A stock solution of LY290181 at 100 μM in HBSS was freshly prepared.
All chemiluminescence studies were performed at a cell concentration of 5,000,000 cells/ml in HBSS with CPPD (50 mg/ml). In all experiments 0.5 ml of cells was added to 25 mg of CPPD or 0.5 mg of zymosan in 1.5 ml capped Eppendorf tubes. 10 μl of luminol dissolved in 25% DMSO in HBSS was added to a final concentration of 1 μM and the samples were mixed to initiate neutrophil activation by the crystals or zymosan. Chemiluminescence was monitored using an LKB Luminometer (Model 1250) at 37° C. for 20 minutes with shaking immediately prior to measurements to resuspend the crystals or zymosan. Control tubes contained cells, drug and luminol (crystals absent).

[5] = test system: collagen-induced arthritis
Procedure: Syngeneic female Louvain rats weighing 120 to 150 grams were injected intradermally with 0.5 mg of native chick collagen II (Genzyme, Boston, Mass.) solubilized in 0.1 M acetic acid and emulsified in FIA (Difco, Detroit, Mich.). […] The control and experimental animals were evaluated for disease severity both clinically and radiographically by individuals blinded to treatment groups.
The severity of inflammation for each limb was evaluated daily and scored based on standardized levels of swelling and periarticular erythema (0 being normal and 4 severe). Animals were evaluated radiographically on day 28 of the experiment. The radiographs of both hind limbs were graded by the degree of soft tissue swelling, joint space narrowing, bone destruction, and periosteal new bone formation. A scale of 0-3 was used to quantify each limb (0=normal, 1=soft tissue swelling, 2=early erosions of bone, 3=severe bone destruction and/or ankylosis). Histological assessment of the joints was completed at the conclusion of the experiment.
Delayed-type hypersensitivity (DTH) to CII was determined by a radiometric ear assay completed on day 28. Radiometric ear indices≧1.4 represent a significant response to CII. The presence of anti-CII IgG antibodies was determined by enzyme-linked immunosorbent assay (ELISA).

[6] = test system: TR1 T-cell clones; test: T cell response to antigenic stimulus (tritiated thymidine incorporation); assay type: cell-based; details: micellar formulation; GP68-88 or conA; added at start or 24 hours after stimulation; 48 hours
Procedure: Tritiated thymidine incorporation was determined as a measure of T-cell proliferation in response to peptide or conA stimulation.

[7] = test system: neutrophils; details: human, 1 h, 46 µM
Procedure: Neutrophils were prepared from freshly collected human citrated whole blood. Briefly, 400 ml of blood were mixed with 80 ml of 4% dextran T500 (Phamacia LKB, Biotechnology AB Uppsala, Sweden) in HBSS and allowed to settle for 1 hour. Plasma was collected continuously and 5 ml applied to 5 ml of Ficoll Paque (Pharmacia) in 15 ml polypropylene tubes (Corning, N.Y.). Following centrifugation at 500 g for 30 minutes, the neutrophil pellets were washed free of erythrocytes by 20 seconds of hypotonic shock. Neutrophils were resuspended in HBSS, kept on ice and used for experiments within 3 hours. Neutrophil viability and purity was always greater than 90%.
To determine the effect of the anti-microtubule agents on neutrophil viability the release of the cytoplasmic marker enzyme, lactate dehydrogenase (LDH) was measured. Control tubes containing cells with drug (crystals absent) from degranulation experiments were also assayed for LDH.

[8] = transgenic mice, 6 months of age

CC(=O)O[C@H]1C(=O)[C@@]2(C)[C@H]([C@H](OC(=O)c3ccccc3)[C@]3(O)C[C@H](OC(=O)[C@H](O)[C@@H](NC(=O)c4ccccc4)c4ccccc4)C(C)=C1C3(C)C)[C@]1(OC(C)=O)CO[C@@H]1C[C@@H]2O [paclitaxel]
concentration inhibiting collagenase expression in vitro [1]: 10^−6 M | collagenase mRNA levels ([1]; 10^−5 M, pretreatment 24 hours, IL-1): complete inhibition | Head Tremors ([2]; normal mice): 0 | Hind Limb Paralysis ([2]; normal mice): 0 | Seizures ([2]; normal mice): 0 | Shaking ([2]; normal mice): 0 | Weight Change ([2]; normal mice): −0-5% | Weight Change ([2]; transgenic mice): +5-10% | Head Tremors [2, 8]: 1+ | Hind Limb Paralysis [2, 8]: 1+ | Seizures [2, 8]: 1+ | Shaking [2, 8]: 1+ | inhibition of endothelial cell proliferation ([3]; 10^−7M or greater): completely inhibited cell proliferation | inhibition at 0.01 µM ([3]; Endothelial cell, 10^−8M): > 50% | inhibition at 28 µM ([4]; plasma opsonized CPPD): 52% | inhibition at 28 µM ([4]; plasma opsonized zymosan): 45% | radiographic disease ([5]; high- and low-dose suppression groups vs control): significantly less radiographic disease | clinical symptoms ([5]; low- and high-dose suppression protocols, i.p. from day 9): significant clinical improvement | IgG antibodies to type II collagen (ELISA) ([5]; paclitaxel-treated rats vs control group): significantly lower | radiographic changes / clinical arthritis ([5]; prevention protocol): None of the rats in the paclitaxel arthritis prevention protocol manifested any radiographic changes or clinical arthritis | development of arthritis ([5]; prevention protocol: 1 mg/kg i.p. from day 2): completely precluded development of the disease | toxic effects of the treatment ([5]; rat, in vivo): few, if any toxic effects | concentration at which T-cell proliferation was (completely) inhibited [6]: 0.02 µM | LDH release [7]: less than 5 % of total
